Source: ChEMBL document CHEMBL1147930, “Selective inhibition of the interaction of C1q with immunoglobulins and the classical pathway of complement activation by steroids and triterpenoids sulfates” (Bioorg Med Chem, 2007)
Counter-ions that a name gives are not always drawn.

Experiments:
[1] = Inhibition of classical pathway of complement activation in sheep erythrocytes in presence of guinea-pig serum; type: functional, cell-based, Ovis aries; conditions: erythrocyte
[2] = Toxicity in sheep erythrocytes assessed as intrinsic hemolytic activity; type: cell-based, Ovis aries, Erythrocyte; conditions: read-out: ED50 (the source's name)
[3] = Inhibition of alternative pathway of complement activation in rabbit erythrocytes in presence of human serum; type: functional, cell-based, Oryctolagus cuniculus; conditions: erythrocyte
[4] = Inhibition of C1q immunoglobulin interaction by hemolytic method; design: species or system Homo sapiens
[5] = Inhibition of C1q immunoglobulin interaction by ELISA; design: species or system Homo sapiens
[6] = Inhibition of classical pathway of complement activation in sheep erythrocytes in presence of human serum; type: functional, cell-based, Ovis aries; conditions: erythrocyte

SMILES	IC50 [1] [µM]	HC50 [2] [µM]	IC50 [3] [µM]	Ki [4] [µM]	Ki [5] [µM]	IC50 [6] [µM]
C[C@]12CC[C@H]3[C@@H](CC=C4C[C@@H](OS(=O)(=O)O)CC[C@@]43C)[C@@H]1CC[C@@H]2C(=O)O	410	> 1600				
C[C@H](CCC(=O)O)[C@H]1CC[C@H]2[C@@H]3CC=C4C[C@@H](OS(=O)(=O)O)CC[C@]4(C)[C@H]3CC[C@]12C	23.7	> 400				
CC1(C)[C@@H](OS(=O)(=O)O)CC[C@]2(C)[C@H]3CC[C@@H]4[C@H]5[C@H](C6(C)CC6(Cl)Cl)CC[C@]5(COS(=O)(=O)O)CC[C@@]4(C)[C@]3(C)CC[C@@H]12 (some centres not stated)	6.8	85				
C=C(C)[C@@H]1CC[C@]2(COP(=O)(O)O)CC[C@]3(C)[C@H](CC[C@@H]4[C@@]5(C)CC[C@H](OP(=O)(O)O)C(C)(C)[C@@H]5CC[C@]43C)[C@@H]12 [BETULIN DIPHOSPHATE]	42.6	> 800				
C=C(C)[C@@H]1CC[C@]2(COS(=O)(=O)O)CC[C@]3(C)[C@H](CC[C@@H]4[C@@]5(C)CC[C@H](OS(=O)(=O)O)C(C)(C)[C@@H]5CC[C@]43C)[C@@H]12 [BETULIN DISULFATE]	6.9	850	414	8.6	42.2	14.6
C=C(C)[C@@H]1CC[C@]2(C(=O)O)CC[C@]3(C)[C@H](CC[C@@H]4[C@@]5(C)CC[C@H](OS(=O)(=O)O)C(C)(C)[C@@H]5CC[C@]43C)[C@@H]12 [BETULINIC ACID SULFATE]	9.9	> 900	640	14.6	57.3	53.8
C[C@H](CCC(=O)O)[C@H]1CC[C@H]2[C@@H]3[C@H](OS(=O)(=O)O)C[C@@H]4C[C@H](OS(=O)(=O)O)CC[C@]4(C)[C@H]3C[C@H](OS(=O)(=O)O)[C@]12C [CHOLIC ACID TRISULFATE]	101	> 1400				
C[C@H](CCC(=O)O)[C@H]1CC[C@H]2[C@@H]3CC[C@@H]4C[C@H](OS(=O)(=O)O)CC[C@]4(C)[C@H]3C[C@H](OS(=O)(=O)O)[C@]12C [DEOXYCHOLIC ACID DISULFATE]	186	> 1600				
CC1(C)CC[C@]2(C(=O)O)CC[C@]3(C)C(=CCC4[C@@]5(C)CC[C@H](OS(=O)(=O)O)C(C)(C)[C@@H]5CC[C@]43C)[C@@H]2C1 (some centres not stated) [OLEANOLIC ACID SULFATE]		15				
C[C@H]1[C@H](C)CC[C@]2(C(=O)O)CC[C@]3(C)C(=CC[C@@H]4[C@@]5(C)CC[C@H](OS(=O)(=O)O)C(C)(C)[C@@H]5CC[C@]43C)[C@H]12 [URSOLIC ACID SULFATE]	25.2	> 900				
